Source: patent US20050112123A1, “Methods of treating proteinuria” (priority 2003, published 2005)
Entries after “also recorded” stand apart in the source; their conditions may differ.

What was measured:
rat podocytes = test: Immunofluorescent staining of cultured rat podocytes (nephrin, podocin)
[1] = system: conditionally immortalized podocytes from transgenic HIV Tg-26; test: MTT proliferation assay, HIV transgenic (Tg) podocytes under growth restriction; assay type: cell-based, mouse; conditions: 25 ATRA, FIG. 6
Protocol: To test the hypothesis that ATRA altered the proliferative capacity of podocytes in HIV transgenic mice, conditionally immortalized podocytes harvested from transgenic HIV Tg-26 (Tg) and conditionally immortalized podocytes from transgene free or wild-type podocytes (controls) were compared in a series of studies. Both transgenic and wild-type cell lines were initially plated in “growth permissive” conditions (33° C.) and grown in 10 ml of “standard media,” consisting of 90% RPMI 1640 (Invitrogen, Grand Island, N.Y.), 10% fetal bovine serum (Hyclone, Logan, Utah), 1% L-glutamine (Irvine Scientific, Santa Ana, Calif.), 1% pen-strep (Biosource, Rockville, Md.), 1% sodium bicarbonate (Sigma-Aldrich, St Louis, Mo.) and 1% HEPES buffer (Sigma-Aldrich, Santa, Ana, Calif.), and 1% sodium pyruvate (Irvine Scientific, Santa Ana, Calif.). For growth promotion, 5 μl of mouse gamma interferon were added to 10 ml of media. […]
Each study group was assessed for proliferation (see below) at three different time points as follows: (i) day “1” of growth restriction which was defined as 24 h after plating cells into growth restrictive conditions; (ii) day 7 of growth restrictive conditions. […]
Cell proliferation was assessed by the MTT (Promega, Madison, Wis.) assay on days 1, 7, and 14 of growth restriction. […]

podocytes = test: Hoecht's Assay of apoptosis for dose selection; assay type: cell-based, mouse; conditions: 25 mM ATRA
Protocol: The dose of 25 mMol/ml ATRA was selected after exposing cells to varying mMol doses of ATRA (10, 25, 50, 75, 100) and then measuring apoptosis with the Hoecht's Assay according to the manufacturer's directions. Apoptosis was not increased at 25 mM.

normal mice = test: Pilot study of adverse side effects in normal mice; assay type: in vivo, mouse; conditions: 16 mg/kg i.p. for 7 days
Protocol: Pilot studies were performed to determine if giving ATRA 16 mg/kg i.p. for 7 days caused adverse side effects in normal mice. […] To determine the effect of ATRA on podocytes in vivo, mice with experimental glomerular disease were given ATRA intraperitoneally (i.p.) on two consecutive days. […] Renal function was assessed by measuring proteinuria and BUN.

[2] = system: C57BL6 mice with anti-glomerular antibody-mediated podocyte injury; test: Anti-glomerular antibody model of podocyte injury: immunostaining of kidney tissue; assay type: in vivo, mouse; conditions: for PCNA staining (podocyte proliferation) vs control: FIG. 4; for WT-1 staining (podocyte number) vs control: P<0.001, FIG. 5
Protocol: Immunofluorescent staining of kidney tissue. Mouse kidney biopsies were fixed in methyl Carnoy's (MC) solution or snap frozen in liquid nitrogen for analysis of proliferating cell nuclear antigen (PCNA), WT-1, podocin, synaptopodin, podocalyxin, and nephrin in vivo following ATRA treatment in anti-glomerular disease. Sections (4 μm) were cut from paraffin embedded MC fixed tissue or from OCT embedded frozen tissue. Frozen sections were then fixed in 100% methanol at −20° C. Mouse monoclonal antibody to PCNA (Beckman Coulter Miami, Fla., USA) or rabbit polyclonal antibody to WT-1 were incubated on MC-fixed tissue, and rabbit polyclonal antibodies to podocin, nephrin, podocalyxin, and synaptopodin were incubated on frozen sections. Primary mouse antibody to PCNA was incubated with a peroxidase conjugated rat anti-mouse IgM antibody (Zymed Laboratories, Inc. So. San Francisco, Calif., USA); all other primary antibodies were incubated with biotinylayted goat anti-rabbit antibody followed by either avidin D conjugated horseradish peroxidase (WT-1) or avidin conjugated AlexaFluor. PCNA and WT-1 stains were visualized with diaminobenzidine (Sigma Chemicals, St. Louis, Mo., USA).
An antibody-mediated model of podocyte injury was induced in C57BL6 mice with a sheep anti-glomerular antibody (two doses of 0.3 ml/20 gm body weight) over two consecutive days. Kim et al. (1999) Kidney Int 55:2349-2361; and Ophascharoensuk et al. (1998) Kidney Int 54:416-425. After the induction of the anti-glomerular model, but before the development of proteinuria, mice were then divided into an experimental group that received daily injections of ATRA 16.6 mg/kg (IP), and a control group that received vehicle (corn oil). […] The podocyte specific proteins WT-1, nephrin, podocin, synaptopodin, were measured by immunostaining at each time point, as was the proliferation marker, PCNA (see above). Using proliferating cell nuclear antigen (PCNA) as a marker of proliferation and WT-1 as a marker for podocytes, the level of podocyte proliferation was determined.

transgenic podocytes = test: Direct visualization (sequential photographs) of plated podocytes; assay type: cell-based, mouse; conditions: addition of ATRA
Protocol: Cellular proliferation was also assessed through direct visualization of 10 cm plated cells at d 1, 2, 4, 6 and 8 growth restriction. Proliferation was assessed by the number of cells seen within a small circle marked on the plate. A total of four circles were marked and observed per plate. The circles were numbered #1-4 and photographed at the above time points. One exemplary circle was chosen per plate and followed through all time points. The four groups were compared at all time points.

[3] = nephritic mice, days 5 and 14 after disease induction, vs control nephritic mice given vehicle
[4] = nephritic mice, vs control nephritic animals given vehicle

CC1=C(/C=C/C(C)=C/C=C/C(C)=C/C(=O)O)C(C)(C)CCC1 [ATRA, all-trans retinoic acid]
podocin immunostaining compared to control (rat podocytes; cultured rat podocytes, OptM ATRA): increased immunostaining
nephrin immunostaining compared to control cells exposed to vehicle (rat podocytes; undifferentiated and proliferating rat podocytes, 10 μM ATRA): nephrin immunostaining increased
reduction of proliferation of transgenic podocytes (MTT) compared to Tg podocytes without ATRA ([1]; day 7 of growth restriction, p<.05): 50%
reduction of proliferation of transgenic podocytes (MTT) compared to Tg podocytes without ATRA ([1]; day 14 of growth restriction, p<0.005): 25%
apoptosis (Hoecht's Assay) (podocytes): not increased
adverse side effects (normal mice): no weight loss, ruffled fur, withdrawal or diarrhea
number of cells that stained positive for PCNA vs normal ([2]; experimental (ATRA treated) mice, day 5, P<0.05 vs normal, FIG. 4 legend): increased
PCNA staining (podocyte proliferation) vs control ([2]; nephritic mice, day 7): did not have a statistically significant effect
WT-1 staining (podocyte number) vs control ([2]; nephritic mice, day 7): prevented the decrease in WT-1 staining; also recorded: prevented the decrease in podocyte number
PCNA staining (podocyte proliferation) vs control ([2]; nephritic mice, day 14): significantly reduced podocyte proliferation; also recorded: significantly reduced PCNA immunostaining
WT-1 staining (podocyte number) vs control ([2]; nephritic mice, day 14): prevented the decrease in WT-1 staining; also recorded: prevented the decrease in podocyte number
nephrin immunostaining in kidney [2, 3]: prevented the decrease in immunostaining
podocin immunostaining in kidney [2, 3]: prevented the decrease in immunostaining
synaptopodin immunostaining in kidney [2, 3]: prevented the decrease in immunostaining
CD2AP immunostaining in kidney [2, 4]: not different from control nephritic animals
p35 immunostaining in kidney [2, 4]: not different from control nephritic animals
proliferation of transgenic podocytes (sequential photographs, 10 cm culture dishes) (transgenic podocytes): attenuated
